# Patent US8685928B2, “Antagonists of MUC1” (Dana-Farber Cancer Institute, Inc., priority 2010, dated 2014)
# “Also recorded” adds a separate entry of the source. Positions of bridges follow the written chain, without caps; N, C: chain ends. Non-standard residues stand in square brackets, D forms with d. Residues, ends and D or L forms follow the SMILES beside them.
# Legend:
# [1] = tested on: MiaPaCa-2 pancreatic carcinoma; settings: human
# Protocol: (§1) GO-203-2 and GO-203-2c were evaluated for ability to inhibit proliferation of murine and human carcinoma cell lines in vitro. Test compound (5 μM final concentration) was added to tumor cell cultures daily for 5 to 6 days, and cell viability was determined by trypan blue dye exclusion.
# H1650 NSCLC = settings: human
# Protocol: as §1
# H1975 NSCLC = settings: human
# Protocol: as §1
# KW-807 LN NSCLC = settings: mouse
# Protocol: as §1
# KW-814 T6 NSCLC = settings: mouse
# Protocol: as §1
# MCF-7 breast carcinoma = settings: human
# Protocol: as §1
# ZR-75-1 breast carcinoma = settings: human
# Protocol: as §1
# A549 NSCLC = settings: human
# Protocol: as §1
# MUC1-CD [2] = assay: MUC1-CD oligomerization in transfected HEK 293T cells, species comparison; format: cell-based; settings: MUC1-CD from rat, dog and human compared
# Protocol: Studies were also conducted to confirm pharmacological relevance of the rodent and nonrodent species chosen for toxicology studies, namely the rat and dog, respectively. MUC1-CD amino acid sequence was determined to be greater than 80% identical between rat, dog and human proteins, and similar expression of MUC1 was found in stomach, intestinal and lung epithelium from the different species using immunohistochemical staining. […] The results of these studies indicate that potential MUC1-CD targets in the rat, dog and human are similar with respect to sequence, tissue expression and responsiveness to inhibition of oligomerization by GO-203-2c, and confirm pharmacological relevance of the species chosen for nonclinical safety assessment of GO-203-2c.
# Hygroscopicity = format: physicochemical; settings: drug substance powder
# From the text: There is no evidence to support an isolable hydrate. GO-203-2c HCl is hygroscopic, and precautions must be taken to avoid moisture uptake while handling the drug substance powder.
# MUC1-CD [3] = target: T1, MUC1-CD (Homo sapiens, UniProt P15941); assay: MUC1-CD oligomerization in HEK 293T cells transfected with GFP- and Flag-tag MUC1-CD; format: cell-based; settings: HEK 293T cells transfected with human MUC1-CD
# T1 construct: Mucin 1 (MUC1) oncoprotein cytoplasmic domain (MUC1-CD); expressed in transfected cells; host or cells: HEK 293T
# T1 sequence (P15941 1182-1255 limits assumed): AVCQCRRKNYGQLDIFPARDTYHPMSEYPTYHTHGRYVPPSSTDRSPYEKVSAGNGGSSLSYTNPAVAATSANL
# From the text: This finding is not surprising based on a requirement for the cysteine residues in the GO-203-2 binding domain (CQCRRKN) to be available for binding with cysteine residues on the corresponding binding domain of the MUC1-CD protein.
# [4] = tested on: human carcinoma cell lines
# Protocol: A series of in vitro and in vivo primary pharmacodynamic studies was conducted to assess efficacy and mechanism of action of GO-203-2c in human tumor cells.
# as §1
# adrenergic α1B receptor = adrenergic α1B receptor (Homo sapiens, UniProt P35368); assay: biochemical
# Chain of adrenergic α1B receptor (P35368 whole entry): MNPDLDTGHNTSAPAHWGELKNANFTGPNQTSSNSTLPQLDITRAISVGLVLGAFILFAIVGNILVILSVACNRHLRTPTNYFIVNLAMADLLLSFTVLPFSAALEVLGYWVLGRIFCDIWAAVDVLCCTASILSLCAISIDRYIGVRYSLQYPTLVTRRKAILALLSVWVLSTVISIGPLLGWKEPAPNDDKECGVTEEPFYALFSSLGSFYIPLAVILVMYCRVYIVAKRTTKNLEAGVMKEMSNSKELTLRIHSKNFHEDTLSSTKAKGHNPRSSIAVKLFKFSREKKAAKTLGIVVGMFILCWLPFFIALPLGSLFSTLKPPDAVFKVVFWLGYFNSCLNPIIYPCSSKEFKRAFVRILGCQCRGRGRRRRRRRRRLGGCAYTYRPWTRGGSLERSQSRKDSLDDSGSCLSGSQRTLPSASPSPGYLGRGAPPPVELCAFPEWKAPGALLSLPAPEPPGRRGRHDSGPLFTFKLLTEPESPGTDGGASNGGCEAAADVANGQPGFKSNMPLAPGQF
# [5] = tested on: A549 non-small cell lung carcinoma xenograft; assay: A549 non-small cell lung carcinoma xenograft model; format: in vivo, mouse; settings: for Tumor response: 7.5 mg/kg
# Protocol: Male BALB/c nu/nu mice (6-7 weeks old; Charles River Laboratories, Wilmington, Mass.) were injected with 5 million A549 or PC3 cells in the right thigh. When tumors reached a predetermined size (approximately 80-100 mm^3; 10-16 days after tumor cell implantation), treatment was initiated as follows: Group 1, saline control (daily×21 days); Group 2, GO-203-2c (7.5 mg/kg, 5 days on/2 days off×3 cycles); Group 3, GO-203-2c (7.5 mg/kg, daily×21 days). In the A549 study, Group 3 animals that still had palpable/measurable tumors at the end of the 21-day treatment period were administered an additional 9 days of GO-203-2c treatment (Group 3′), with a one week interim period between treatments.
# [6] = target: nicotinic acetylcholine α1 (bungarotoxin) receptor (Homo sapiens, UniProt P02708+P07510+Q07001); assay: biochemical
# Chain of nicotinic acetylcholine α1 (bungarotoxin) receptor (P07510 23-517): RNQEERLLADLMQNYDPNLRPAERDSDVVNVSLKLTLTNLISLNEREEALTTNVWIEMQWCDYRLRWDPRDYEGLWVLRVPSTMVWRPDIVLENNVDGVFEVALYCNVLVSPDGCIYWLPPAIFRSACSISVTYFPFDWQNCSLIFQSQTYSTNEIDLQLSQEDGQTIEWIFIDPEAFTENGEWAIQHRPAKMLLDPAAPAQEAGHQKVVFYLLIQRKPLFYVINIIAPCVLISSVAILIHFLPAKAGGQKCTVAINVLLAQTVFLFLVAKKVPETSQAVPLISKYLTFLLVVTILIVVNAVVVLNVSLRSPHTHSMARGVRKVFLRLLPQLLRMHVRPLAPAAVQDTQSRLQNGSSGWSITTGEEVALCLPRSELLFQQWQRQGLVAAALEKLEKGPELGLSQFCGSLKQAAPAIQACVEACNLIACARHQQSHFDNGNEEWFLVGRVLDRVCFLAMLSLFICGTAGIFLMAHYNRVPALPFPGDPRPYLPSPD
# Chain of nicotinic acetylcholine α1 (bungarotoxin) receptor (P02708 21-457): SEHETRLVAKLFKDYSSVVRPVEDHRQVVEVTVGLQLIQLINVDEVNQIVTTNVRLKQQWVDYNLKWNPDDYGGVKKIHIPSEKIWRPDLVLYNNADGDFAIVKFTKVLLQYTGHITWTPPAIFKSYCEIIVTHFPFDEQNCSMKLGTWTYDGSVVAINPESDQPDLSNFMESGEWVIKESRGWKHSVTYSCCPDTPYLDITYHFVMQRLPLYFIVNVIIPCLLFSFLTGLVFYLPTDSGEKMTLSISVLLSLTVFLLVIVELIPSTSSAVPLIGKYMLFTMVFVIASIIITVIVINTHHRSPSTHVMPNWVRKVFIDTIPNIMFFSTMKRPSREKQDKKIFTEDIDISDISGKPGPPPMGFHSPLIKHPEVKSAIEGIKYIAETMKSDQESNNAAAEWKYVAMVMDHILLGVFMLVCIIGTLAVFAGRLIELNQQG
# Chain of nicotinic acetylcholine α1 (bungarotoxin) receptor (Q07001 22-517): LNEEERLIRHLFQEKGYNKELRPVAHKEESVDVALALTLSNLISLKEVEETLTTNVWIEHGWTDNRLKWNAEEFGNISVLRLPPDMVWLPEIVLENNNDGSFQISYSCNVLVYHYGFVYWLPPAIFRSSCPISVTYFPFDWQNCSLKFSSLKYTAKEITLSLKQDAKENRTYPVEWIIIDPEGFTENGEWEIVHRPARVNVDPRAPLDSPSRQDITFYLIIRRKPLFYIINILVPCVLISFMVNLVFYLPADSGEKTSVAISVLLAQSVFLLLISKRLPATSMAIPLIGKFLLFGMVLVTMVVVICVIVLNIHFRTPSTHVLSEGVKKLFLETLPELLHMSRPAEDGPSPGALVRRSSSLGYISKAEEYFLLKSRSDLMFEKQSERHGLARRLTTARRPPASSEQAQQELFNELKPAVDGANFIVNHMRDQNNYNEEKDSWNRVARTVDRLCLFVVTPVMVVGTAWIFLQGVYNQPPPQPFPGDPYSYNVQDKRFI
# Chain of nicotinic acetylcholine α1 (bungarotoxin) receptor (P11230 24-501, further chain): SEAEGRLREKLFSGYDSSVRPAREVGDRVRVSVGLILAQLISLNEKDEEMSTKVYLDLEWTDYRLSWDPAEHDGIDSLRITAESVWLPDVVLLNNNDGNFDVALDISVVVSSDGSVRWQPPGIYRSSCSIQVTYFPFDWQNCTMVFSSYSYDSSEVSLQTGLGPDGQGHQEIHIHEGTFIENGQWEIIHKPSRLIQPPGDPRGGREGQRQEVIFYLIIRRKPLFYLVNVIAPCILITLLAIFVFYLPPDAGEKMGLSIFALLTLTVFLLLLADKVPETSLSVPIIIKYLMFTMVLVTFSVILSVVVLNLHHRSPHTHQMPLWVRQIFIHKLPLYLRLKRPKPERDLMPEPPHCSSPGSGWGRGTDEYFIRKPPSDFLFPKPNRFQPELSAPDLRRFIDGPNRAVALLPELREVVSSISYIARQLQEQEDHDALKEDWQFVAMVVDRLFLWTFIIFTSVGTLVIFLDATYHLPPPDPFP
# H1975 Lung cancer cells = assay: Inhibition of cell proliferation, trypan blue exclusion (Table 2); format: cell-based, human; settings: 5 μM peptide every day, 6-day treatment
# Protocol: (§2) Cells (ZR-75-1 breast carcinoma or H-1975 non-small cell lung carcinoma) were plated separately in 24-well plates for 24 hours prior to treatment with different peptides. The cells were then treated with 5 μM (final concentration) of different peptides every day for 4-6 days. On the day of termination, cells were washed two times with PBS and trypsinized with 0.3 ml of Trypsin/EDTA. Cell growth media was used to stop the trypsin reaction. Following washing, the cells were centrifuged and the cell pellets were re-suspended in PBS for counting in hemacytometer.
# (§3) The trypan blue dye exclusion method was used to determine the number of viable cells present in a cell suspension. Cell suspension was mixed as 1:1 with the trypan blue dye and then visually examined in a hemacytometer. A viable cell will have a clear cytoplasm whereas a non-viable/dead cell will be stained with trypan blue dye. By doing this trypan blue exclusion method, viable cell numbers were counted and percent inhibition of proliferation was then calculated comparing with untreated controls.
# [7] = tested on: ZR-75-1 Breast cancer cells; assay: Inhibition of cell proliferation, trypan blue exclusion (Table 1); format: cell-based, human; settings: 5 μM peptide every day, 6-day treatment
# Protocol: as §2, §3
# Solubility = format: physicochemical; settings: for solubility: as peptide
# [8] = tested on: ZR-75-1 human breast carcinoma xenograft; assay: ZR-75-1 xenograft model, 5 days on/2 days off IV dosing schedule; format: in vivo, mouse; settings: for Mice completely cured / Tumor response: 7.5 mg/kg IV
# Protocol: In a second study using this ZR-75-1 cell xenograft model, a 5 days on/2 days off IV dosing schedule was used, and groups of 8 mice received either one, two or three cycles utilizing this schedule. […] Tumor growth was cytostatic for 4-5 days after stopping the drug treatment, but tumors subsequently started re-growing similarly to control. […] Tumors in the remaining 5 of 8 mice in this group started re-growing at 8+ days after cessation of treatment. These animals were administered an additional 2 cycles of treatment, starting on Day 29.
smiles,measurement,setting,value
"CC(=O)N[C@H](CCCNC(=N)N)C(=O)N[C@H](CCCNC(=N)N)C(=O)N[C@H](CCCNC(=N)N)C(=O)N[C@H](CCCNC(=N)N)C(=O)N[C@H](CCCNC(=N)N)C(=O)N[C@H](CCCNC(=N)N)C(=O)N[C@H](CCCNC(=N)N)C(=O)N[C@H](CCCNC(=N)N)C(=O)N[C@H](CCCNC(=N)N)C(=O)N[C@@H]1CSSC[C@H](C(=O)N[C@H](CCCNC(=N)N)C(=O)N[C@H](CCCNC(=N)N)C(=O)N[C@H](CCCCN)C(=O)N[C@H](CC(N)=O)C(N)=O)NC(=O)[C@@H](CCC(N)=O)NC1=O [GO-203-2c, Ac-(D)Arg-(D)Arg-(D)Arg-(D)Arg-(D)Arg-(D)Arg-(D)Arg-(D)Arg-(D)Arg-(D)Cys-(D)Gln-(D)Cys-(D)Arg-(D)Arg-(D)Lys-(D)Asn-NH2 disulfide] (Ac-[dR][dR][dR][dR][dR][dR][dR][dR][dR][dC][dQ][dC][dR][dR][dK][dN]-NH2; disulfide 10-12)",% Inhibition of cell viability,[1],81.5%
same,% Inhibition of cell viability,H1650 NSCLC,89.0%
same,% Inhibition of cell viability,H1975 NSCLC,46.2%
same,% Inhibition of cell viability,KW-807 LN NSCLC,40.3%
same,% Inhibition of cell viability,KW-814 T6 NSCLC,70.1%
same,% Inhibition of cell viability,MCF-7 breast carcinoma,87.7%
same,% Inhibition of cell viability,ZR-75-1 breast carcinoma,43.6%
same,% Inhibition of cell viability,A549 NSCLC,73.1%
same,Inhibition of MUC1-CD oligomerization,MUC1-CD [2],in an equivalent manner
same,Hygroscopicity,Hygroscopicity,hygroscopic
same,Inhibition of MUC1-CD oligomerization,MUC1-CD [3],inhibition
same,50% inhibition (IC50) of proliferation,[4],5 to 11 µg/mL
same,IC50,[4],2 to 5 µM
same,IC50,adrenergic α1B receptor,3 to 8 µM
same,Tumor response,[5]; 5 days on/2 days off x 3 cycles,"tumor growth arrest during the treatment period, but the tumors resumed growth; also recorded: started growing steadily after day 9"
same,Tumor response,[5]; daily x 21 days,slowed down tumor growth substantially
same,Tumor response after re-dosing,[5]; additional 9 days of treatment from day 29,somewhat stabilized with a very slow growth
same,Average tumor size on day 29,"[5]; daily x 21 days group after 7 days of rest, at start of re-dosing",~900 mm^3
same,IC50,[6],3 to 8 µM
same,Avg (viable cell number of Groups 1-3),H1975 Lung cancer cells,7.2
same,% inhibition,H1975 Lung cancer cells; vs untreated control,60.7%
same,"Group-1 (viable cell number, individual well)","H1975 Lung cancer cells; well having 10,000 cells",8.47
same,"Group-2 (viable cell number, individual well)","H1975 Lung cancer cells; well having 10,000 cells",7.13
same,"Group-3 (viable cell number, individual well)","H1975 Lung cancer cells; well having 10,000 cells",6.02
same,Avg (viable cell number of Groups 1-3),[7],9.83
same,% inhibition,[7]; vs untreated control,58.69%
same,"Group-1 (viable cell number, individual well)","[7]; well having 10,000 cells",9.18
same,"Group-2 (viable cell number, individual well)","[7]; well having 10,000 cells",11.22
same,"Group-3 (viable cell number, individual well)","[7]; well having 10,000 cells",8.55
same,solubility,"Solubility; 10 mM acetate pH 3.0-4.0, 0.9% NaCl",> 50 mg/mL
same,solubility,Solubility; 10 mM acetate pH 4.0,7 to 37 mg/mL
same,solubility,Solubility; 1% (v/v) aqueous acetic acid,> 110 mg/mL
same,solubility,Solubility; 10% (v/v) aqueous acetonitrile,> 110 mg/mL
same,Time without gel formation,"Solubility; solutions in water, 1% aqueous acetic acid or 10% aqueous acetonitrile",at least 5 days
same,solubility,Solubility; water,> 240 mg/mL
same,Mice completely cured,[8]; 2 dosing cycles,Two of 8
same,Tumor response,[8]; 2 dosing cycles (5 days on/2 days off),Tumor regression
same,Mice completely cured,[8]; 3 dosing cycles,Three of 8
same,Tumor response,[8]; 3 dosing cycles (5 days on/2 days off),"tumor growth arrest during the treatment period, but the tumors resumed growth; also recorded: substantial regression of tumors"
same,Tumor response,[8]; one dosing cycle (5 days on/2 days off),partial tumor regression
same,Tumor response after re-dosing,[8]; additional 2 cycles from Day 29 in 5 mice with re-growing tumors,somewhat stabilized with very slow growth
